Measured values reported in patent US20240173440A1, “HIGH PURITY COPPER RADIOPHARMACEUTICAL COMPOSITIONS AND DIAGNOSTIC AND THERAPEUTIC USES THEREOF” (Nuclidium AG, priority 2022, published 2024).
Blank lines part the entries; values can stand above or below the compound they belong to.

Tests used:
[1] = tested on: HEK-SST2 xenografts; test: PET/CT imaging in HEK-SST2 xenografted mice; format: in vivo; details: 0-60 min and 240 min
Description: (§1) Tumor xenografted mice were injected intravenously into the tail vein with the tested radiotracer. […] Mice were anesthetized with 1.5% isoflurane and dynamic PET scans were acquired during 1 hour upon injection of the radiotracer. The mice were euthanized by CO2 at 4 hours p.i., the bladder was mechanically emptied, and static PET scans were acquired for 30 min. PET images were acquired using the R-CUBE PET scanner system (MOLECUBES, Gent, Belgium) and they were decay corrected and reconstructed with the VivoQuant software version 4.0. The CT was imaged supine, headfirst, using the NanoSPECT/CT™ scanner (Bioscan Inc.). Topograms and helical CT scans of the whole mouse were first acquired using the following parameters: X-ray tube current: 177 μA, X-ray tube voltage 45 kVp, 90 seconds and 180 frames per rotation, pitch 1. CT images were reconstructed using CTReco (version r1.146), with a standard filtered back projection algorithm (exact cone beam) and post-filtered (RamLak, 100% frequency cut-off), resulting in a pixel size of 0.2 mm. Co-registered PET/CT images were visualized using maximum intensity projection (MIP) with InVivoScope (version 1.43, Bioscan Inc.). The results are presented in the Examples that follow.

[2] = in vivo; details: iv, 20 umol, total radioactivity
Description: The tumors were allowed to grow for 1-3 weeks before commencement of the experiments.
(§2) The mice were randomly distributed in groups and euthanized at 1 and at 4 hours post-injection. The organs of interest were collected, rinsed, blotted, weighed and counted in a gamma counter. The results are expressed as percentage of injected activity per gram (% IA/g), representing the mean±standard deviation of n=4-8 mice per group and they were obtained by extrapolation from counts of an aliquot taken from the injected solution as standard.
The mice were randomly distributed in groups, injected with the radiotracer under investigation and euthanized at 1 and at 4 hours post-injection of the radiotracers under investigation. The organs of interest were collected, rinsed, blotted, weighed and counted in a gamma counter. The results are expressed as percentage of injected activity per gram (% IA/g), representing the mean±standard deviation of all mice per group and they were obtained by extrapolation from counts of an aliquot taken from the injected solution as standard.
The mice were randomly distributed in groups and euthanized at 4 hours post-injection. The organs of interest were collected, rinsed, blotted, weighed, and their respective radioactivity was counted in a gamma counter.

[3] = target: T1, PSMA (Homo sapiens (Human), UniProt Q04609); test: Specificity study: PET/CT in LNCaP xenografts after blocking with 2-PMPA, and free [61Cu]CuCl2; format: in vivo, mice; details: PET/CT 1 hour p.i.
T1 sequence (Q04609 whole entry): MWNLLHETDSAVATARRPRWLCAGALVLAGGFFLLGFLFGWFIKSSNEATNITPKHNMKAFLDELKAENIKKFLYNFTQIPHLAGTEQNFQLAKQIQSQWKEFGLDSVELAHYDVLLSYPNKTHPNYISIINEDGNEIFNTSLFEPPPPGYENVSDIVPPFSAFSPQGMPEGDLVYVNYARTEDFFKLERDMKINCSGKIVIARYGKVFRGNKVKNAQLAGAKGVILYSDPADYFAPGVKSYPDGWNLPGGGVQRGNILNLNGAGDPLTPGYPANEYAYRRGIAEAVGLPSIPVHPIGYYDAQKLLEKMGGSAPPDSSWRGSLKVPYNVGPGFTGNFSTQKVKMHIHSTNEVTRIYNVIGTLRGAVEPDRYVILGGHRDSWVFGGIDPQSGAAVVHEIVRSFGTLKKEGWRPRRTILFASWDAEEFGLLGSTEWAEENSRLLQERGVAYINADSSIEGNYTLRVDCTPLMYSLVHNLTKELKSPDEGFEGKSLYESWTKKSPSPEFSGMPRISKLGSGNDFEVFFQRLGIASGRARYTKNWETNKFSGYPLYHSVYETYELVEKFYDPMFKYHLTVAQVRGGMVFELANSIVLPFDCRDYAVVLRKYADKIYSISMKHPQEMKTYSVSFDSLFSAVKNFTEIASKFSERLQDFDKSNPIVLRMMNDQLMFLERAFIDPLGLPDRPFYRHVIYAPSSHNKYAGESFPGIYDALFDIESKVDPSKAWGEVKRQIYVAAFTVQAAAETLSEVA
Description: The specificity of [^61Cu]Cu-NODAGA-PSMA-I&T and [^61Cu]Cu-DOTAGA-PSMA-I&T was assessed in LNCaP xenografted mice, firstly injected with 1.3 μmol (300 μg) of 2-Phosphonomethyl pentanedioic acid (2-PMPA) as the blocking agent, followed by the injection of the radiotracer e.g. [^61Cu]Cu-DOTAGA-PSMA-I&T (100 μL/[…]/4-8 MBq) or [^61Cu]Cu-NODAGA-PSMA-I&T (100 μL/[…]/4-8 MBq). One-hour post injection PET/CT images were acquired as described in Example 8. In addition, PET/CT image of xenografts after injection of [^61Cu]CuCl2 (100 μL/7 MBq) was acquired in order to assess the total body distribution of free (uncomplexed)^61Cu. The results are shown in FIG. 10, panels A and B. L=liver; K=kidneys; T=tumor; Bl=bladder; I=intestine.

[4] = Lipophilicity, log D by shake-flask method (1-octanol/PBS pH 7.4); format: physicochemical; details: shake-flask, Table 17, mean ± SD
Description: The radiotracer (1 μM) was added to a 50:50 pre-saturated mixture of 1-octanol and phosphate buffered saline (PBSpH 7.4). The solution was vortexed for 30 min and then centrifuged at 3,000 rpm to achieve a phase separation. Aliquots from each phase were collected and measured in a gamma-counter. The distribution coefficient was calculated as the average of the logarithmic values of the ratio between the radioactivity in the organic and the PBS phase.
Table 17. Lipophilicity expressed as the log distribution coefficient D (log D(Octanol/PBS pH7.4)) of ^61Cu-radiotracers versus ^68Ga-radiotracers (reference radiotracers).
In a pre-lubricated Eppendorf tube, a pre-saturated mixture of 500 μL of 1-octanol and 500 μL of PBS pH 7.4 (phosphate-buffered saline) were added. An aliquot of […] in 10 μL of the radioligand was added to this mixture, shaken for 30 min, and then centrifuged at 3000 rcf for 10 min to achieve phase separation. Aliquots of 100 μL were removed from the 1-octanol and from the PBS phases, and the activity was measured in a […]. The partition coefficient was calculated as the average log ratio value of the radioactivity in the organic fraction and PBS fraction.

[5] = tested on: LNCaP xenografts; test: Quantitative biodistribution in LNCaP xenografted mice; format: in vivo; details: LNCaP xenografts
Description: as §2
The biodistribution of the [^61Cu]Cu-NODAGA radiotracers was compared with the reference compounds used in patients under identical experimental conditions. The mice were randomly distributed in groups, injected with the radiotracer under investigation and euthanized at 1 and at 4 hours post-injection of the radiotracers under investigation. The organs of interest were collected, rinsed, blotted, weighed and counted in a gamma counter. The results are expressed as percentage of injected activity per gram (% IA/g), representing the mean±standard deviation of all mice per group and they were obtained by extrapolation from counts of an aliquot taken from the injected solution as standard.

[6] = tested on: LNCaP cells; test: In vitro cellular uptake (cell surface and internalized fractions) in LNCaP cells; format: cell-based; details: for Cell surface fraction / Internalized fraction: specific uptake
Description: The cellular uptake was studied in vitro using intact cells seeded in 6-well plates overnight. On the day of the experiment, the cells were washed and incubated with each of the exemplified [^61Cu]Cu-radiotracer at different time points, either alone or in the presence of a blocking agent to distinguish between specific and non-specific uptake. At each investigated time point, the medium containing the unbound (free) radiotracer was removed, followed by two washing steps with ice-cold phosphate-buffered saline. The cells were then treated 2×5 min with ice-cold glycine solution (0.05 M, pH 2.8) to detach the cell surface-bound radiotracer (acid released). Afterwards, the cells containing the internalized radiotracer were detached with 1 M NaOH at 37° C. and collected for measurement. The amount of specific cell surface-bound and internalized radiotracer is expressed as percentage of the total applied activity, after subtracting the non-specific values.
2-(phosphonomethyl)-pentanedioic acid (2-PMPA, 10 μM) was used to determine non-specific binding (FIG. 14).
Cellular uptake and distribution between cell surface (cell membrane bound) and internalized fractions of ^61Cu-labeled PSMA-I&T constructs versus their ^68Ga counterparts (Table 19). The values are expressed as % of the applied activity and refer to the specific uptake calculated after subtracting the non-specific values (measured in the presence of 10 μM 2-PMPA) from the total values (specific=total−non specific).

[7] = tested on: LNCaP xenografts; test: PET/CT imaging in LNCaP xenografted mice; format: in vivo; details: LNCaP-xenografted nude mice
Description: as §1

[8] = target: T1, PSMA; test: Competitive binding assay (IC50) on LNCaP cells with radioligand [125I-BA]KuE; details: 1 hour on ice, radioligand [^125I-BA]KuE 0.2 nM, mean ± SD
Description: In the case of the PSMA constructs, the radioiodinated ((S)-1-carboxy-5-(4-(-^125I-iodo-benzamido)pentyl)carbamoyl)-L-glutamic acid ([^125I-BA]KuE) was used as reference radioligand. The assay was performed on LNCaP cells seeded in 24-well plates (1.5×10^5 cells/well). The cells were incubated with increased concentrations of each ^natCu-complexed conjugates (ranging from 0.1 up to 100 nM) in the presence of 0.2 nM [^125I-BA]KuE. After 1 hour incubation on ice, the unbound (free) [^125I-BA]KuE was collected by removing the medium and the cells were detached with NaOH 1 M for counting (bound radioligand). Non-specific binding was defined as the amount of binding activity in the presence of the blocking agent 2-(phosphonomethyl)pentanedioic acid (2-PMPA) in high excess (10 μM).
Quantification of the free and bound radioligand was performed in a gamma-counter. The data were analyzed by GraphPad Prism 9 Software and the IC50 values were determined using the “log(inhibitor) vs response” equation based on the specific binding=total−non-specific binding.
Table 18. IC50 values were determined by competitive assays. […] The results are expressed as means standard deviation (SD) from a minimum of two separate experiments, each in triplicates.

distribution pattern on PET/CT [1]: same distribution pattern
tissue uptake at 4 h ([2]; athymic nude Foxn1+Foxn1+, mouse, Biodistribution Adrenal): 0.61 ± 0.18 %ID/g
tissue uptake at 4 h ([2]; athymic nude Foxn1+Foxn1+, mouse, Biodistribution Blood): 0.1 ± 0.01 %ID/g
tissue uptake at 4 h ([2]; athymic nude Foxn1+Foxn1+, mouse, Biodistribution Heart): 0.17 ± 0.02 %ID/g
tissue uptake at 4 h ([2]; athymic nude Foxn1+Foxn1+, mouse, Biodistribution Intestine): 0.58 ± 0.13 %ID/g
tissue uptake at 4 h ([2]; athymic nude Foxn1+Foxn1+, mouse, Biodistribution Liver): 0.73 ± 0.06 %ID/g
tissue uptake at 4 h ([2]; athymic nude Foxn1+Foxn1+, mouse, Biodistribution Lung): 0.42 ± 0.05 %ID/g
tissue uptake at 4 h ([2]; athymic nude Foxn1+Foxn1+, mouse, Biodistribution Pancreas): 0.44 ± 0.24 %ID/g
tissue uptake at 4 h ([2]; athymic nude Foxn1+Foxn1+, mouse, Biodistribution Spleen): 0.17 ± 0.02 %ID/g
tissue uptake at 4 h ([2]; athymic nude Foxn1+Foxn1+, mouse, Biodistribution Stomach): 0.78 ± 0.14 %ID/g
tissue uptake at 4 h ([2]; athymic nude Foxn1, mouse, Biodistribution Bone): 0.42 ± 0.12 %ID/g
tissue uptake at 4 h ([2]; athymic nude Foxn1, mouse, Biodistribution Kidneys): 3.87 ± 0.51 %ID/g
tissue uptake at 4 h ([2]; athymic nude Foxn1, mouse, Biodistribution Muscle): 0.1 ± 0.02 %ID/g
tissue uptake at 4 h ([2]; athymic nude Foxn1, mouse, Biodistribution Pituitary): 3.64 ± 0.31 %ID/g
tissue uptake at 4 h ([2]; athymic nude Foxn1, mouse, Biodistribution SSTR2-tumor): 19 ± 2.11 %ID/g
Structure (SMILES): C[C@@H](O)[C@@H]1NC(=O)[C@H](CCCCN)NC(=O)[C@@H](Cc2ccc(NC(N)=O)cc2)NC(=O)[C@H](Cc2ccc(O)cc2)NC(=O)[C@H](NC(=O)[C@H](Cc2ccc(Cl)cc2)NC(=O)CC[C@H](C(=O)O)N2CCN(CC(=O)O)CCN(CC(=O)O)CC2)CSSC[C@@H](C(=O)N[C@H](Cc2ccc(O)cc2)C(N)=O)NC1=O [[^61Cu]Cu-(R)-NODAGA-LM3, metal not drawn]

uptake in PSMA-positive tumors and kidneys in xenografts pre-injected with 2-PMPA [3]: significantly lower uptake
log D(O/PBS pH 7.4) [4]: −2.69±0.44
Biodistribution Adrenal ([5]; 1 hour p.i.): 9.35 ± 1.50 % IA/g
Biodistribution Blood ([5]; 1 hour p.i.): 2.06 ± 0.24 % IA/g
Biodistribution Bone ([5]; 1 hour p.i.): 2.31 ± 0.36 % IA/g
Biodistribution Heart ([5]; 1 hour p.i.): 3.73 ± 0.32 % IA/g
Biodistribution Intestine ([5]; 1 hour p.i.): 8.95 ± 0.62 % IA/g
Biodistribution Kidneys ([5]; 1 hour p.i.): 57 ± 6 % IA/g
Biodistribution LNCaP-tumor ([5]; 1 hour p.i.): 6.06 ± 0.25 % IA/g
Biodistribution Liver ([5]; 1 hour p.i.): 19.3 ± 3.3 % IA/g
Biodistribution Lung ([5]; 1 hour p.i.): 6.35 ± 0.35 % IA/g
Biodistribution Muscle ([5]; 1 hour p.i.): 1.00 ± 0.05 % IA/g
Biodistribution Pancreas ([5]; 1 hour p.i.): 2.82 ± 0.67 % IA/g
Biodistribution Salivary glands ([5]; 1 hour p.i.): 5.60 ± 1.39 % IA/g
Biodistribution Spleen ([5]; 1 hour p.i.): 4.64 ± 1.35 % IA/g
Biodistribution Stomach ([5]; 1 hour p.i.): 7.77 ± 0.62 % IA/g
Ratio Tumor/Blood ([5]; 1 hour p.i.): 2.97 ± 0.23
Ratio Tumor/Kidney ([5]; 1 hour p.i.): 0.11 ± 0.01
Ratio Tumor/Liver ([5]; 1 hour p.i.): 0.32 ± 0.05
Ratio Tumor/Muscles ([5]; 1 hour p.i.): 6.08 ± 0.22
Biodistribution Adrenal ([5]; 4 hours p.i.): 6.46 ± 2.38 % IA/g
Biodistribution Blood ([5]; 4 hours p.i.): 1.12 ± 0.24 % IA/g
Biodistribution Bone ([5]; 4 hours p.i.): 1.69 ± 0.25 % IA/g
Biodistribution Heart ([5]; 4 hours p.i.): 2.08 ± 0.33 % IA/g
Biodistribution Intestine ([5]; 4 hours p.i.): 7.74 ± 1.76 % IA/g
Biodistribution Kidneys ([5]; 4 hours p.i.): 22.1 ± 2.2 % IA/g
Biodistribution LNCaP-tumor ([5]; 4 hours p.i.): 4.88 ± 0.63 % IA/g
Biodistribution Liver ([5]; 4 hours p.i.): 13.9 ± 2.2 % IA/g
Biodistribution Lung ([5]; 4 hours p.i.): 4.67 ± 0.76 % IA/g
Biodistribution Muscle ([5]; 4 hours p.i.): 0.48 ± 0.08 % IA/g
Biodistribution Pancreas ([5]; 4 hours p.i.): 1.71 ± 0.23 % IA/g
Biodistribution Salivary glands ([5]; 4 hours p.i.): 2.31 ± 0.19 % IA/g
Biodistribution Spleen ([5]; 4 hours p.i.): 2.95 ± 0.73 % IA/g
Biodistribution Stomach ([5]; 4 hours p.i.): 7.10 ± 0.97 % IA/g
Ratio Tumor/Blood ([5]; 4 hours p.i.): 4.56 ± 1.49
Ratio Tumor/Kidney ([5]; 4 hours p.i.): 0.22 ± 0.04
Ratio Tumor/Liver ([5]; 4 hours p.i.): 0.35 ± 0.05
Ratio Tumor/Muscles ([5]; 4 hours p.i.): 10.5 ± 2.8
Structure (SMILES): O=C([O-])CN1CCN(CC(=O)[O-])CCN(C(CCC(=O)N[C@H](Cc2ccc(O)c(I)c2)C(=O)N[C@H](Cc2ccccc2)C(=O)N[C@H](CCCCNC(=O)CCCCCCC(=O)NCCCC[C@H](NC(=O)N[C@@H](CCC(=O)O)C(=O)O)C(=O)O)C(=O)O)C(=O)O)CCN(CC(=O)O)CC1.[61Cu+2] (stereo partly drawn) [[^61Cu]Cu-DOTAGA-PSMA-I&T]
accumulation in tumor and target-positive tissues [5]: high accumulation in PSMA-positive (LNCaP) tumor and PSMA-positive tissues
Cell surface fraction ([6]; 5 min): 3.7 ± 0.5 % of the applied activity
Internalized fraction ([6]; 5 min): 0.7 ± 0.1 % of the applied activity
Cell surface fraction ([6]; 15 min): 8.1 ± 0.7 % of the applied activity
Internalized fraction ([6]; 15 min): 2.8 ± 0.2 % of the applied activity
Cell surface fraction ([6]; 30 min): 11.6 ± 1.0 % of the applied activity
Internalized fraction ([6]; 30 min): 6.2 ± 0.5 % of the applied activity
Cell surface fraction ([6]; 60 min): 13.4 ± 0.8 % of the applied activity
Internalized fraction ([6]; 60 min): 13.3 ± 0.5 % of the applied activity
Cell surface fraction ([6]; 120 min): 14.7 ± 1.0 % of the applied activity
Internalized fraction ([6]; 120 min): 21.3 ± 0.9 % of the applied activity
PSMA-mediated cellular uptake ([6]; after 2h at 37° C.): approx. 35%
part of the cellular uptake being internalized ([6]; after 2h at 37° C.): 50-60%
distribution on PET/CT images [7]: lower tumor, but also lower kidney uptake

IC50 [8]: 11.2 ± 2.3 nM
Structure (SMILES): O=C([O-])CN1CCN(CC(=O)[O-])CCN(C(CCC(=O)N[C@H](Cc2ccc(O)c(I)c2)C(=O)N[C@H](Cc2ccccc2)C(=O)N[C@H](CCCCNC(=O)CCCCCCC(=O)NCCCC[C@H](NC(=O)N[C@@H](CCC(=O)O)C(=O)O)C(=O)O)C(=O)O)C(=O)O)CCN(CC(=O)O)CC1.[Cu+2] (stereo partly drawn) [^natCu-DOTAGA-PSMA-I&T, reference compound]

IC50 [8]: 9.3 ± 1.8 nM
Structure (SMILES): O=C([O-])CN1CCN(CC(=O)[O-])CCN([C@H](CCC(=O)N[C@H](Cc2ccc(O)c(I)c2)C(=O)N[C@H](Cc2ccccc2)C(=O)N[C@H](CCCCNC(=O)CCCCCCC(=O)NCCCC[C@H](NC(=O)N[C@@H](CCC(=O)O)C(=O)O)C(=O)O)C(=O)O)C(=O)O)CC1.[Cu+2] [^natCu-NODAGA-PSMA-I&T]
